Data on 3 compounds can be found in publication PMC4802219, “Improved dialytic removal of protein-bound uraemic toxins with use of albumin binding competitors: an in vitro human whole blood study” (Scientific Reports, 2016).

SMILES strings stand for the structures.

Data set [1] addresses T1, albumin (Homo sapiens, UniProt P02768).
T1 construct: from tissue; host or cells: human uraemic plasma
In words: Static RED assay of PBUT displacement by binding competitors in uraemic plasma. Particulars: for displacement of IS and PCS: RED assay (Fig. 1); for increase of free fraction of IS / increase of free fraction of PCS: displacer 1 mmol/l, RED 4 h 37 °C, compared to PBS. On the procedure:
We evaluated the albumin binding of uraemic toxins and their interaction with displacers in human uraemic plasma utilizing the RED device. Candidate displacers were mixed with uraemic plasma before incubation. The test mixture (300 μl) was added into the sample chamber, while the buffer chamber was filled with 500 μl PBS. After 4 hours of incubation (37 °C, 250 rpm), samples were collected from both chambers for HPLC analysis. The concentration of all displacers and negative control (antipyrine) in the incubations was 1 mmol/l. For furosemide, incubations at final concentration of 0.18 mmol/l were also included since this is the clinically relevant concentration for intravenous administration.
(§1) Blood samples were centrifuged at 13200 rpm for 3 mins. The plasma layer was collected and stored at −80 °C. Plasma samples (50 μl) were precipitated with 100 μl of ice-cold acetonitrile to precipitate the proteins. The samples were then vortexed thoroughly and centrifuged at 3000 rpm for 10 minutes. The supernatant, containing the uraemic toxins and displacers, was collected and further diluted 1:1 with deionized water before HPLC injection. The dialysate samples (100 μl) were diluted with 100 μl water before HPLC injection.
Measurements were calibrated with standard curves for all analytes, and were linear over the concentration range of the experiments. Measurements were performed on an Agilent 1100 system (Agilent Technologies, Dover, DE, USA) equipped with a C18 column (Kinetex 5 μm C18 100 Å, LC Column 150 × 4.6 mm, Phenomenex, Torrance, CA, USA). Mobile phase A: ammonium formate, 20 mmol/l, pH 4. Mobile phase B: acetonitrile. The gradient profile for mobile phase B was: 0–2 min, 15%; 11–14 min, 100%; 14.2–16 min, 15%; and the flow rate gradient was 0–11.2 min, 0.4 ml/min; 11.2–16 min 0.5 ml/min. […] HIPA and furosemide were detected at 230 nm with the UV-Vis detector. The injection volume was 5 μl.
For PBUT displacement in RED assays, Dunnett’s post-analysis comparisons to PBS were performed by one way ANOVA using GraphPad Prism (GraphPad Software, La Jolla, CA).

On the set-up of data set [2]: method as in PMID 973966, PMID 3514052. Conditions: cited from earlier work.
Data set [3] deals with T1, albumin. Description: Static RED assay of IS displacement by ibuprofen with or without furosemide in normal human plasma. Particulars: normal human plasma spiked with IS 150 μmol/l, ibuprofen 0 to 931 μmol/l, furosemide 0.18 mmol/l (Fig. 3). The class given is binding.
For data set [4], the target named is T1, albumin. In words: Single-pass haemodialysis model with uraemic human whole blood and pre-dialyzer displacer infusion. Here is the method: All experiments were carried out in triplicate.
as §1
Measurements were calibrated with standard curves for all analytes, and were linear over the concentration range of the experiments. Measurements were performed on an Agilent 1100 system (Agilent Technologies, Dover, DE, USA) equipped with a C18 column (Kinetex 5 μm C18 100 Å, LC Column 150 × 4.6 mm, Phenomenex, Torrance, CA, USA). Mobile phase A: ammonium formate, 20 mmol/l, pH 4. Mobile phase B: acetonitrile. […] HIPA and furosemide were detected at 230 nm with the UV-Vis detector. The injection volume was 5 μl.

Setting [5] is: intervention phase vs baseline phase, P < 0.0001.

T1 sequence (P02768 25-609): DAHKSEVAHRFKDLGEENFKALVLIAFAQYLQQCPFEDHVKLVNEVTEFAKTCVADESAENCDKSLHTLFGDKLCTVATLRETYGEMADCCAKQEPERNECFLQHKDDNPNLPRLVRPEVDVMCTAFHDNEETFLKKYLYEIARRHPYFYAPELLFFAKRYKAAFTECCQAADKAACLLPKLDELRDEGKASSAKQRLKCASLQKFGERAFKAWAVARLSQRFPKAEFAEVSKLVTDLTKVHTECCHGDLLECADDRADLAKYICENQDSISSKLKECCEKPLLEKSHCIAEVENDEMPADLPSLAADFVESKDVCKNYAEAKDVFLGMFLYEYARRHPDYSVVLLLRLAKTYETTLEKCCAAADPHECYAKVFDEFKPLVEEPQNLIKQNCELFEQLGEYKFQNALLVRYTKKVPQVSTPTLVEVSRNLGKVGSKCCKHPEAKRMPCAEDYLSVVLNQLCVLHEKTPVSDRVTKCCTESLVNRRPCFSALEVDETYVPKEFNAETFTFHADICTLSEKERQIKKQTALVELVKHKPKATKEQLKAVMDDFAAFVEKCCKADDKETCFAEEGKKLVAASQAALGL

For the compound `Cc1cc(=O)n(-c2ccccc2)n1C` [antipyrine], the “change in uraemic toxin protein binding” value on albumin [1] (uraemic plasma, negative control 1 mmol/l (Figs 1 and 2)) was “did not lead to a significant change”. For the same compound, the protein binding capability result in data set [2] is given as “lacks protein binding capability”.

With `NS(=O)(=O)c1cc(C(=O)O)c(NCc2ccco2)cc1Cl` [furosemide], the “increase in the free fraction of IS” value on albumin [1] (furosemide alone at 0.18 mmol/l (Fig. 1)) is “did not induce a significant increase”. In addition, on albumin [1] (uraemic plasma), the “displacement of IS and PCS” value was “limited displacement effect”; the “increase of free fraction of IS” value is recorded as approximately 1.3 fold; the “increase of free fraction of PCS” value was approximately 1.3 fold. In addition, the “displacement of HIPA” value on albumin [1] (uraemic plasma, RED assay (Fig. 2)) is given as “significant displacement”. Moreover, on albumin [3], the “effect on IS displacement by ibuprofen when given simultaneously” value is recorded as “boost the IS displacement effect of ibuprofen”.

On to `N[C@@H](Cc1c[nH]c2ccccc12)C(=O)O` [tryptophan, L-Tryptophan], for which, at albumin [1] (uraemic plasma), the “displacement of IS and PCS” value is “more efficiently than HIPA”; the “increase of free fraction of IS” value is approximately 2 fold; the “increase of free fraction of PCS” value was approximately 2 fold. Also, the HIPA removal result at albumin [4] (human whole blood, HIPA 400 μmol/l (1 mmol/l with tryptophan) (Fig. 6)) is “virtually unaffected”. Moreover, the “fractional removal of IAA during displacer infusion” value on albumin [4] (human whole blood, IAA 15 μmol/l, Qb 12.5 ml/min, Qd 25 ml/min, mean ± SEM, N = 3) is 27.1 ± 0.3%. Besides, the “fractional removal of IS during displacer infusion” value at albumin [4] (human whole blood, IS 150 μmol/l, Qb 12.5 ml/min, Qd 25 ml/min, mean ± SEM, N = 3) was found to be 10.5 ± 0.1%. On albumin [4] (setting [5]), the “increase of IAA removal” value came out at 1.3 fold and the “increase of IS removal” value came out at 1.4 fold.
